Measurements published in ChEMBL document CHEMBL1201862, “PubChem BioAssay data set” (2004).
Activity calls are given as the source filed them.

Experiments:
[1] = biological target: T1, Corticotropin-releasing factor receptor 2/Corticotropin-releasing factor-binding protein (Homo sapiens, UniProt P24387+Q13324); experiment: Dose Response confirmation of uHTS hits for small molecule antagonists of the CRF-binding protein and CRF-R2 receptor complex.; format: functional; settings: read-out: IC50_Mean
T1 sequence (Q13324 whole entry): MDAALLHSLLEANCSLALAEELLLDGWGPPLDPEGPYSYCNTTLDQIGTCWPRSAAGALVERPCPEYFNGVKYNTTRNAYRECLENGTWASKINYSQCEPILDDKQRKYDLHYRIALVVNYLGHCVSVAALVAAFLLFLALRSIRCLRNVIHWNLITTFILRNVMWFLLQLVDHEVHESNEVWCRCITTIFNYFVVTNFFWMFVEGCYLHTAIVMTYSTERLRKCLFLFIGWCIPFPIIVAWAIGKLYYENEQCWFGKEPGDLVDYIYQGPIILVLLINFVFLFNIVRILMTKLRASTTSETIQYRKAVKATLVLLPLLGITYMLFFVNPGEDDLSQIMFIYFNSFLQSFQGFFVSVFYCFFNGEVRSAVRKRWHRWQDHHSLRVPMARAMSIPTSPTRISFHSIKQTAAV
T1 sequence (P24387 whole entry): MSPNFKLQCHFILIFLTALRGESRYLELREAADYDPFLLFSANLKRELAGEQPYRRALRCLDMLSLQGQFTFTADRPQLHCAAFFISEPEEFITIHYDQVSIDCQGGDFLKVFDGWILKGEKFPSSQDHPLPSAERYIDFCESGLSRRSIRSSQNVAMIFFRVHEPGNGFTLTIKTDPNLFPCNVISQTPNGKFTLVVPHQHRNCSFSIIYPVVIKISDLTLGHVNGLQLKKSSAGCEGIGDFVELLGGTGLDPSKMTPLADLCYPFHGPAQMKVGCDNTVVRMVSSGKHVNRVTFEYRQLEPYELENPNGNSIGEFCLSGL

[2] = biological target: T1, Corticotropin-releasing factor receptor 2/Corticotropin-releasing factor-binding protein; experiment: activators of CRF receptor 2 with binding protein – uHTS hits, confirmation (AID 602473); format: functional; settings: read-out: EC50_Mean
Cytochrome P450 1A2 = biological target: T2, Cytochrome P450 1A2 (Homo sapiens, UniProt P05177);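 further: PubChem cytochrome P450 panel assay, CYP1A2 panel member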
T2 sequence (P05177 whole entry): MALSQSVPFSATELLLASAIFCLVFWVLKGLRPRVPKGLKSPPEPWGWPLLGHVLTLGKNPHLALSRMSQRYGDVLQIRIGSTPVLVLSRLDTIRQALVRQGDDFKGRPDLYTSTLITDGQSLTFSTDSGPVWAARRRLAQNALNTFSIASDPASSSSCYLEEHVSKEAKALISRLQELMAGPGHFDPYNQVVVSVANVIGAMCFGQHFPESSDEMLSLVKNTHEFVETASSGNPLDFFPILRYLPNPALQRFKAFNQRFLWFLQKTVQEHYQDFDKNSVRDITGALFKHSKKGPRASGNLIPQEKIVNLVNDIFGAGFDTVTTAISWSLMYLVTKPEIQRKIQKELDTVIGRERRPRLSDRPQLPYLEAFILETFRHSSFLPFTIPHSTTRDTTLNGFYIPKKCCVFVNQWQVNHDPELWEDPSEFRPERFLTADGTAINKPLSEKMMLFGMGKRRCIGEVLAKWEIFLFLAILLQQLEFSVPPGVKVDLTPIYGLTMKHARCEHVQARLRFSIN

Cytochrome P450 2D6 = Cytochrome P450 2D6 (Homo sapiens, UniProt P10635);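 further: CYP2D6 member of a cytochrome P450 panel assay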
Chain of Cytochrome P450 2D6 (P10635 whole entry): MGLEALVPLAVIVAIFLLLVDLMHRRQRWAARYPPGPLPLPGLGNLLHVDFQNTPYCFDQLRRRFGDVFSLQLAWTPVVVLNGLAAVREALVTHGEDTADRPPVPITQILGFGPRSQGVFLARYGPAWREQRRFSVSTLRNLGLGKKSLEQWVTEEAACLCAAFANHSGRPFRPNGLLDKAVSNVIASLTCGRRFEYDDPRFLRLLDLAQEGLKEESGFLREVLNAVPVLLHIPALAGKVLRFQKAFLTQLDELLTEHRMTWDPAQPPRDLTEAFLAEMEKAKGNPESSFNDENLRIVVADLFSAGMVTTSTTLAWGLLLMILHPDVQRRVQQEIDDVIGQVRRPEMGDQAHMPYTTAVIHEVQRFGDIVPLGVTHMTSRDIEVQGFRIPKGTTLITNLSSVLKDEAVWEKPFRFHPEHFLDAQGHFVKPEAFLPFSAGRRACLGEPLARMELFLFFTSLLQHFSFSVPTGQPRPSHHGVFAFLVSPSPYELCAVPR

Cytochrome P450 3A4 = Cytochrome P450 3A4 (Homo sapiens, UniProt P08684);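 further: CYP3A4 tested as one member of a cytochrome P450 panel screen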
Chain of Cytochrome P450 3A4 (P08684 whole entry): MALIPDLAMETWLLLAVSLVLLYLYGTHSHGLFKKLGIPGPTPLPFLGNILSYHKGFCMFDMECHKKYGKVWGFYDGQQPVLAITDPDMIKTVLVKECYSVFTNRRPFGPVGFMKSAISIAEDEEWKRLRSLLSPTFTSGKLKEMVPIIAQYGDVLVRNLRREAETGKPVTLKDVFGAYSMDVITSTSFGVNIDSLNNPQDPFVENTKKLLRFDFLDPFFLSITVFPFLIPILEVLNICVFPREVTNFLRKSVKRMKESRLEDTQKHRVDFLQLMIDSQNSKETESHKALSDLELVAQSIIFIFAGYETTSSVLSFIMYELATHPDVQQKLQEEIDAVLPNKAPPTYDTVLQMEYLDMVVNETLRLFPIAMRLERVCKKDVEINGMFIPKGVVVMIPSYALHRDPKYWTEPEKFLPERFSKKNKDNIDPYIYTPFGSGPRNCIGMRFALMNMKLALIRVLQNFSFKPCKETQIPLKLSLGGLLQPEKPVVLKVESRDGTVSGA

Cytochrome P450 2C9 = Cytochrome P450 2C9 (Homo sapiens, UniProt P11712)
Chain of Cytochrome P450 2C9 (P11712 whole entry): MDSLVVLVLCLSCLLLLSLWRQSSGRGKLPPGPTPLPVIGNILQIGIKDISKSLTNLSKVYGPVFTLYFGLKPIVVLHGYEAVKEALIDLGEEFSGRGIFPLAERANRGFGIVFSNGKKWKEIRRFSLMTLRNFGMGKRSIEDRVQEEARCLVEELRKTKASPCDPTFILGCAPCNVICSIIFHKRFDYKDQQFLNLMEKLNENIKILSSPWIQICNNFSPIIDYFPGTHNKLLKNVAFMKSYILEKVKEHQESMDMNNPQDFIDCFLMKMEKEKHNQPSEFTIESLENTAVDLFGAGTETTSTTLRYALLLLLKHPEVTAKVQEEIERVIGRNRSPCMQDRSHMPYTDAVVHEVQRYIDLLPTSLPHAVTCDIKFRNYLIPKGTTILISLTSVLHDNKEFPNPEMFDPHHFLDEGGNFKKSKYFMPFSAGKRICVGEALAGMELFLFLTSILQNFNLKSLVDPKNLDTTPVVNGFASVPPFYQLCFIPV

H9c2 = experiment: cells; format: functional, cell-based; settings: Rattus norvegicus, H9c2, Myocardium;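 further: confirmatory concentration-response retest of ultra-high-throughput screening hits for modulation of myocardial damage; cell death induced by hydrogen peroxide oxidative stress; compound pretreatment for 60 min then peroxide exposure for 2 h; potency is for protecting the cells against peroxide damage rather than for killing them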
[3] = microbe, parasite or virus in culture; format: functional; settings: Mycobacterium tuberculosis
Streptococcus = experiment: GAS UMAA2166 growth inhibition – luminescence, BacTiterGlo, counter-screen for streptokinase expression inhibitor project, dose response (AID 1915); format: functional, organism-based;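 further: potency for reduction of bacterial viability or growth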
[4] = test system: Streptococcus sp. 'group A'; experiment: Streptococcus pyogenes SK(-)GAS viability under kanamycin – luminescence, BacTiterGlo, confirmation, counter-screen for streptokinase expression inhibitor project, dose response (AID 1900); format: functional, organism-based
[5] = Trypanosoma cruzi growth suppression in host cells – NIH3T3 host cells, beta-gal luminescence, confirmation (AID 2044); format: functional, cell-based;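 further: intracellular parasites grown in NIH/3T3 mouse fibroblasts as host cells; luminescent beta-galactosidase reporter signal from transgenic T. cruzi replicating inside host cells; inhibitors lower the luminescence signal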
[6] = NIH3T3 cell viability loss – ATP luminescence, mouse fibroblasts, counter-screen, dose response (AID 2010); format: functional, cell-based;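 further: cells exposed to compound for about 90 hours before reading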
Cytochrome P450 2C19 = Cytochrome P450 2C19 (Homo sapiens, UniProt P33261); experiment: Cytochrome panel assay with activity outcomes. Panel member name: p450-cyp2c19 Compounds with AC50 equal or less than 10 uM are considered active; format: functional; settings: read-out: AC50
Chain of Cytochrome P450 2C19 (P33261 whole entry): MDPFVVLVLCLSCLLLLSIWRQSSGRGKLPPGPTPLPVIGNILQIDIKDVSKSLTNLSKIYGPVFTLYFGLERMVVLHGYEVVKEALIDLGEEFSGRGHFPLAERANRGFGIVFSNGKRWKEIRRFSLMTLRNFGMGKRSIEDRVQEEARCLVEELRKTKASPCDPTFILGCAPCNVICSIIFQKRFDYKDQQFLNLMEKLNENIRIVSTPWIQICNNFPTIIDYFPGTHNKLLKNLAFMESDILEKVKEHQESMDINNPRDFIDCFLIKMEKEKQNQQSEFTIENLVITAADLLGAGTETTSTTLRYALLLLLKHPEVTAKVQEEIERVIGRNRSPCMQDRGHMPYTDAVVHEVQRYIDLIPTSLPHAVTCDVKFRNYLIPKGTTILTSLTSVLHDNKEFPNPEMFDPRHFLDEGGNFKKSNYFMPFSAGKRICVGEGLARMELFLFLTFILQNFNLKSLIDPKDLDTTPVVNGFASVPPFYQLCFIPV

Cc1[nH]c(=O)[nH]c(=O)c1S(=O)(=O)N1CCCC(C(=O)N2CCN(c3ccccc3Cl)CC2)C1 (stereo not given)
IC50 [1]: > 47.1 µM (inactive)
EC50 [2]: > 53 µM (inactive)

Cn1cc(-c2nc3cnc(N4CCNCC4)nc3n(Cc3ccc(F)cc3)c2=O)c2ccccc21
AC50 (Cytochrome P450 1A2): 20 µM (inconclusive)
AC50 (Cytochrome P450 2D6): 20 µM (inconclusive)

O=c1c(-c2cc(F)cc(F)c2)nc2cncnc2n1Cc1ccccc1Cl
AC50 (Cytochrome P450 3A4): 15.8 µM (inconclusive)
AC50 (Cytochrome P450 1A2): 5.01 µM (inconclusive)

CN1CCN(c2ncc3nc(-c4cc(F)cc(F)c4)c(=O)n(CCC#N)c3n2)CC1
AC50 (Cytochrome P450 3A4): 15.8 µM (inconclusive)
AC50 (Cytochrome P450 1A2): 15.8 µM (inconclusive)
AC50 (Cytochrome P450 2C9): 31.6 µM (inconclusive)

NC(=O)c1ccc(NCC2COc3ccccc3O2)c([N+](=O)[O-])c1 (stereo not given)
IC50 [1]: > 47.1 µM (inactive)
EC50 [2]: > 53 µM (inactive)

O=C(Nc1cccc(O)c1)c1ccc(NC(=O)c2cccs2)cc1
IC50 [1]: > 47.1 µM (inactive)
EC50 [2]: > 53 µM (inactive)

COc1ccccc1-n1c(SCC(=O)Nc2ccccc2F)nc2nncc-2c1O
AC50 (Cytochrome P450 1A2): 28.2 µM (inconclusive)
AC50 (Cytochrome P450 2D6): 8.91 µM (inconclusive)

CC(=O)Nc1cccc(NC(=O)c2cc(-c3cccnc3)nc3ccc(Cl)cc23)c1
IC50 (H9c2): > 79 µM (inactive)

CCCCCn1nc(C(=O)OCC(=O)c2c(N)n(C)c(=O)n(C)c2=O)c2ccccc2c1=O
IC50 (H9c2): > 79 µM (inactive)

O=C(CSc1ccc(Cl)cc1)N1CCC(c2nc3ccccc3s2)CC1
CC50 [3]: 34.7 µM (active)

O=C(CN1CCCCC1)Nc1nc(-c2ccc(F)c(F)c2)cs1
IC50 (H9c2): > 79 µM (inactive)

OC(c1ccccc1)(c1ccc(F)cc1)C(c1ccccc1)N1CCOCC1 (stereo not given)
AC50 (Cytochrome P450 2D6): 14.1 µM (inconclusive)

O=C(NC(=S)N1CCN(c2nc(-c3ccccc3)cs2)CC1)c1cncc(Br)c1
EC50 (Streptococcus): 3.91 µM (active)
EC50 [4]: 3.04 µM (active)

Cn1c(C(=O)NCCc2ccsc2)cc2c(=O)n(C)c3ccccc3c21
IC50 (H9c2): > 79 µM (inactive)

Cn1cccc1C(=O)N1CCC2(CC1)CN(Cc1cc(C(F)(F)F)cc(C(F)(F)F)c1)C2
AC50 (Cytochrome P450 1A2): 10 µM (inconclusive)
AC50 (Cytochrome P450 2D6): 25.1 µM (inconclusive)

Clc1nc2c(-c3ccccc3)nnn2c2ccccc12
CC50 [3]: 27.3 µM (active)
EC50 [5]: 2.55 µM (active)
EC50 [6]: > 60 µM (not active)

CCOC(=O)C(Cc1ccc(NC(=O)/C(=C/c2ccc(OC(C)=O)cc2)NC(C)=O)cc1)N1C(=O)c2ccccc2C1=O (stereo not given)
IC50 (H9c2): > 79 µM (inactive)

O=C(CCCSc1nc(O)c2c3c(sc2n1)CCC3)NCCO
IC50 (H9c2): > 79 µM (inactive)

CC1CCc2cc(F)ccc2N1C(=O)CSc1n[nH]c2c3cc(F)ccc3nc-2n1 (stereo not given)
AC50 (Cytochrome P450 2C19): 0.562 µM (inconclusive)
AC50 (Cytochrome P450 2D6): 14.1 µM (inconclusive)

C/C(CCN1CCCCc2nc(C)c(C)cc21)=N\OC[C@@H](O)COCc1ccco1
AC50 (Cytochrome P450 2D6): 7.94 µM (inconclusive)

O=C(Cc1ccccc1[N+](=O)[O-])NCCSCc1c(F)cccc1Cl
AC50 (Cytochrome P450 1A2): 5.62 µM (inconclusive)
AC50 (Cytochrome P450 2D6): 2.82 µM (inconclusive)

Cc1ccccc1Cn1c(=O)sc2ccccc2c1=O
IC50 [1]: > 47.1 µM (inactive)
EC50 [2]: > 53 µM (inactive)

COc1cccc(C(=O)Nc2cc(C)c3c(=O)oc4ccccc4c3n2)c1
IC50 (H9c2): > 79 µM (inactive)

COc1cccc(Cn2c(=O)c(-c3cccs3)nc3cnc(Nc4cccc(OC)c4)nc32)c1
AC50 (Cytochrome P450 3A4): 12.6 µM (inconclusive)
AC50 (Cytochrome P450 1A2): 2.51 µM (inconclusive)
AC50 (Cytochrome P450 2C9): 0.794 µM (inconclusive)

CCOC(=O)c1csc(Nc2nc3ccc(F)cc3s2)n1
EC50 (Streptococcus): 11.4 µM (active)
EC50 [4]: 5.24 µM (active)

Cc1cc(C)n(C(=O)CNC(=O)c2ccccc2Br)n1
IC50 [1]: > 47.1 µM (inactive)
EC50 [2]: > 53 µM (inactive)
